Patent US20180289692A1, “TLR MODULATORS AND METHODS OF USE” (CELGENE CORPORATION, priority 2015, published 2018)
Oligonucleotides are written 5' to 3', each unit as a sugar letter and its base; * is a phosphorothioate linkage, no mark a phosphodiester; rarer units and linkages stand in square brackets, end groups in braces. Plain capitals give the bases only. d = 2'-deoxy (DNA); m = 2'-O-methyl

Assays:
TLR9 = target: T1, TLR9 (Homo sapiens, UniProt Q9NR96); experiment: NF-κB reporter gene in recombinant TLR9-expressing HEK293 cells; type: cell-based; settings: TLR9-expressing HEK293 cells, FIG. 16A
T1 construct: expressed in transfected cells; host or cells: TLR9 expressing HEK293 reporter cells with a human NF-κB reporter construct
T1 sequence (Q9NR96 26-1032): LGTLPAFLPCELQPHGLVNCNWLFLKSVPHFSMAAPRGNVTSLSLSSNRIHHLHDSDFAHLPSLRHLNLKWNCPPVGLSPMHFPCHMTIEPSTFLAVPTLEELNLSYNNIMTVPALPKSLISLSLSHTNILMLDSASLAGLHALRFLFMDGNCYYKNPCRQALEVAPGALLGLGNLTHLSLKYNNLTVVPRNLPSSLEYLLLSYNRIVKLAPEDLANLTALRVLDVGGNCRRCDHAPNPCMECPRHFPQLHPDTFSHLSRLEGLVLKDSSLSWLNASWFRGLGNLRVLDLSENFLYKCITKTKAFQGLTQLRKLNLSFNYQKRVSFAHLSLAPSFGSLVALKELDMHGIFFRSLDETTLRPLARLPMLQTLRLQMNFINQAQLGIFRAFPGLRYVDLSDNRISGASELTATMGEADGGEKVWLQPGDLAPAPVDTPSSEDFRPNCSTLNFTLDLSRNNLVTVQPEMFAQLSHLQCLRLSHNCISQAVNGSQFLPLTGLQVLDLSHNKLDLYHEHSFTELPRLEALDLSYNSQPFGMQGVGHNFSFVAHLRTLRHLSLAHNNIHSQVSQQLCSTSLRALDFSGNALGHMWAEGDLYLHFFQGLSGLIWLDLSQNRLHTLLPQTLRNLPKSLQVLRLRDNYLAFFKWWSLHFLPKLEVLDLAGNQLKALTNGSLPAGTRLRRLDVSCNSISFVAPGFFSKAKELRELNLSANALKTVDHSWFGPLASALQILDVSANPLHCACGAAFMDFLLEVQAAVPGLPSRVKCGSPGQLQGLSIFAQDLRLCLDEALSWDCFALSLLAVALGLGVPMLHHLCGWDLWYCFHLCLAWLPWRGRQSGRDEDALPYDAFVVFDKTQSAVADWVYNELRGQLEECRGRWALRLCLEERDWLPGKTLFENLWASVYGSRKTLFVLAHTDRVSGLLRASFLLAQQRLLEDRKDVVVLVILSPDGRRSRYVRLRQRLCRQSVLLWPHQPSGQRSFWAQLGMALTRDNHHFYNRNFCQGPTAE
Description: FIGS. 16A-B show results of experiments in which recombinant TLR-expressing HEK293 cells carrying an NF-κB reporter gene were incubated with COMPOUND(I), ODN150, ODN2006, or ODN7040 for 48 hours at the indicated concentrations.

human pDCs [1] = experiment: Surface ICOS-L and PD-L1 expression in CCR6+CD123+ human pDCs by FACS; type: cell-based; settings: for increase of COMPOUND (I) induced ICOS-L expression by HCQ: primary human pDCs; for PD-L1 protein induction: 24 hrs, FIG. 2B
Description: To evaluate surface ICOS-L, PD-L1 expression in the CCR6+CD123+ pDC cell subsets, PBMCs were incubated on ice in the presence of Fc-Block (BD Pharmingen) for 20 minutes, washed, and incubated with antibodies specific for surface molecules or isotype-matched control mAbs. APC-labeled anti-human ICOS-L mAb were purchased from BioLegend, PECY-7-labeled anti-human CCR6 mAb, FITC-labeled anti-human PD-L1 mAb and PerCP-Cy5.5 labeled anti-human CD123 mAb were purchased from BD Biosciences. The stained cells were then subjected to FACS (FACSCanto, BD Biosciences) using FACSDiva software. FACS analysis was performed using FlowJo software. Single, viable cells in the CCR6+CD123+ pDC gates were analyzed. The flow cytometric results are expressed as the percentage and MFI of ICOSL-, or PD-L1-expressing cells in each gate.
pDCs were isolated and ICOS-L expression was analyzed as described in Example 2.

human PBMCs [2] = experiment: Cytokine production by human PBMCs treated with ODNs, MagPix Multi-Plex; type: cell-based; settings: for IFN-γ / IL-1β / IL-6 / IL-10 / IL-12p40 / IP10 / TNF-α: human PBMC, 24 hrs
Description: PBMC from 3 donors were isolated from Buffy Coat (Blood Center of NY). The cells were washed with PBS and re-suspended in RPMI-1640 Media with 5% Human AB Serum, 1% Pen/Strep and 2 mM L-glutamine. The cells were then plated in 96-well plates at 250,000 cells/well. […] After 24 hrs, the supernatant was harvested and tested for cytokine production using MagPix Multi-Plex Technology. The following cytokines were tested: IL-6, IL-10, IL-12p40, IFN-α, IFN-γ, IP-10, IL-1β and TNF-α.

[3] = test system: canonical NF-κB promoter reporter; experiment: Mouse Raw Blue Reporter Cells, SEAP reporter driven by canonical NF-κB promoter (FIG. 11); type: cell-based; settings: mouse macrophages, 24 hrs; for activation of canonical NF-κB reporter: SEAP, COMPOUND (I) up to 10 μM
Description: Mouse Raw Blue Reporter Cells (Invivogen), containing a secreted embryonic alkaline phosphatase (SEAP) reporter gene driven by canonical NF-κB promoter, were plated in 96-well plates at 50,000 cells/well in DMEM Media supplemented with 10% FBS, 2 mM L-glutamine, 1% Pen/Strep, […] Normacin. […] The supernatant was harvested and tested for SEAP production by measuring OD at 630 nm.

human pDCs [4] = experiment: Intracellular IL-10, TGF-β1 and IDO expression in CCR6+CD123+ human pDCs by FACS; type: cell-based; settings: 24 hrs, FIG. 2A
Excerpt: To evaluate intracellular IL-10, TGFβ 1 and IDO expression in human pDCs, the cells were first stained with PECY-7-labeled anti-human CCR6 mAb (BD Biosciences), PerCP-Cy5.5 labeled anti-human CD123 mAb (BD Biosciences). Stained cells were then fixed and permeabilized using a Cytofix/Cytoperm kit (BD Biosciences) according to the manufacturer's instructions and stained with PE-labeled anti-human IDO (Biolegend), APC-labeled anti-human IL-10 mAb and FITC-labeled anti-human TGF-β1 (BD Biosciences), or isotype-matched control mAbs. The stained cells were acquired by FACSCanto using the FACSDiva software. FACS analysis was performed using FlowJo software. Single, viable cells in the CCR6+CD123+ pDC gates were analyzed. The flow cytometric results are expressed as the percentage and MFI of IL-10-, TGF-β1- or IDO-expressing cells in each gate. Results are expressed as the mean±SEM of cells quantified.
IL10 was alternatively measured in cellular supernatants by ELISA using standard protocols.

human PBMCs [5] = experiment: IL-1β secretion from human PBMCs by ELISA (inflammasome activation); type: cell-based; settings: 24 hours, FIG. 15
[6] = test system: canonical NF-κB promoter reporter; experiment: Canonical NF-κB promoter reporter construct in RAW264.7 macrophage cells (FIG. 10); type: cell-based, mouse; settings: 24 hrs
Description: Mouse RAW264.7 macrophage cells containing a reporter construct driven by a canonical NF-κB promoter were plated in 96-well plates at 50,000 cells/well. […] The supernatant was harvested and tested for optical density.

mouse macrophages = experiment: TNFα and IL-10 production in mouse macrophages (Raw Blue cells), MagPix; type: cell-based; settings: 24 hrs
Description: Mouse Raw Blue Reporter Cells (Invivogen) were plated in 96-well plates at 50,000 cells/well in DMEM Media supplemented with 10% FBS, 2 mM L-glutamine, 1% Pen/Strep, […] Normacin. […] The supernatant was harvested and tested for TNFα and IL-10 production using MagPix Multi-Plex technology.

Molecule | IFN-γ (human PBMCs [2]; high-dose ODN 10 μM) | IL-1β (human PBMCs [2]; high-dose ODN 10 μM) | IL-6 (human PBMCs [2]; high-dose ODN 10 μM) | IL-10 (human PBMCs [2]; high-dose ODN 10 μM) | IL-12p40 (human PBMCs [2]; high-dose ODN 10 μM) | IP10 (human PBMCs [2]; high-dose ODN 10 μM) | TNF-α (human PBMCs [2]; high-dose ODN 10 μM) | IFN-γ (human PBMCs [2]; low-dose ODN 0.1 μM) | IL-1β (human PBMCs [2]; low-dose ODN 0.1 μM) | IL-6 (human PBMCs [2]; low-dose ODN 0.1 μM) | IL-10 (human PBMCs [2]; low-dose ODN 0.1 μM) | IL-12p40 (human PBMCs [2]; low-dose ODN 0.1 μM) | IP10 (human PBMCs [2]; low-dose ODN 0.1 μM) | TNF-α (human PBMCs [2]; low-dose ODN 0.1 μM) | activation of canonical NF-κB reporter [3] | TGF-β1 protein induction (human pDCs [4]) | PD-L1 protein induction (human pDCs [1]; human pDCs) | further results
CCN(CCO)CCCC(C)Nc1ccnc2cc(Cl)ccc12 (stereo not shown) [HCQ, hydroxychloroquine] |  |  |  |  |  |  |  |  |  |  |  |  |  |  |  |  |  | effect on COMPOUND (I) activity on NF-κB reporter gene (TLR9): inhibited; increase of COMPOUND (I) induced ICOS-L expression by HCQ (human pDCs [1]; HCQ 10 μM + COMPOUND (I) 1 μM, FIG. 6A): 7.3 fold; increase of COMPOUND (I) induced ICOS-L expression by HCQ (human pDCs [1]; HCQ 10 μM + COMPOUND (I) 1 μM, FIG. 6B): 2.0 fold; increase of COMPOUND (I) induced ICOS-L expression by HCQ (human pDCs [1]; HCQ 10 μM + COMPOUND (I) 10 μM, FIG. 6A): 7.1 fold; increase of COMPOUND (I) induced ICOS-L expression by HCQ (human pDCs [1]; HCQ 10 μM + COMPOUND (I) 10 μM, FIG. 6B): 1.9 fold; ICOS-L expression, agent alone (human pDCs [1]; human pDCs, COMPOUND (I) 1 μM and 10 μM by itself, HCQ 10 μM alone): did not induce measurable levels
ODN150C: 5′-G*G*A*ACAGTTAGTCCATa*G*G*C-3′, PO except * = PS; control lacking CG-dinucleotide sequences (DNA GGAACAGTTAGTCCATGGC; listed as DNA, chemistry not fully specified) | 0.1 pg/mL | 0.3 pg/mL | 1.4 fold change | 1 fold change | 0 pg/mL | 1.5 fold change | 1.4 fold change | 0.1 pg/mL | 0.2 pg/mL | 1.2 fold change | 1 fold change | 0 pg/mL | 1 fold change | 1.2 fold change | did not activate |  |  | 
ODN301C: 5′-GTAGCCCCATCACCCAGCAGC-3′, fully PS, GC-containing (DNA dG*dT*dA*dG*dC*dC*dC*dC*dA*dT*dC*dA*dC*dC*dC*dA*dG*dC*dA*dG*dC) | 0 pg/mL | 1.9 pg/mL | 3.3 fold change | 1 fold change | 0.8 pg/mL | 0.25 fold change | 2.8 fold change | 0 pg/mL | 0.1 pg/mL | 1.3 fold change | 1 fold change | 0 pg/mL | 1.1 fold change | 1.1 fold change |  | can induce | can induce | IFNα secretion from PBMCs (human PBMCs [2]; any tested concentration between 0.01 μM and 10 μM, FIG. 25): not found to induce; IL-1β induction (human PBMCs [5]): induce
ODN302: 5′-GTCGCTCTTCTCCTCCGCCAG-3′, fully PS; scrambled (non-SMAD7 AON) control sequence with two CG sequences (DNA dG*dT*dC*dG*dC*dT*dC*dT*dT*dC*dT*dC*dC*dT*dC*dC*dG*dC*dC*dA*dG) | 9.7 pg/mL | 3.9 pg/mL | 41 fold change | 1.5 fold change | 5.2 pg/mL | 4.4 fold change | 9.3 fold change | 1.5 pg/mL | 0.2 pg/mL | 19 fold change | 1.5 fold change | 0.7 pg/mL | 13.9 fold change | 2.4 fold change |  | can induce | can induce | activation of the NF-κB construct ([6]; 0.1-100 μM): Moderate activation; ODN concentration at which activation of the NF-κB construct was observed [6]: about 1 μM
ODN1826 |  |  |  |  |  |  |  |  |  |  |  |  |  |  | potent activator |  |  | TNFα protein expression (mouse macrophages; FIG. 12, COMPOUND (I) up to 10 μM): induce; IL-10 protein expression (mouse macrophages; FIG. 13, COMPOUND (I) up to 10 μM): induce; concentration from which the NF-κB reporter is activated [3]: ≤ 0.01 µM
ODN7040C: 5′-CTGCCAAGTTCACCTGCA*C*C*-3′, PO; * = 2′OMe; control lacking CG-dinucleotide sequences (DNA dCdTdGdCdCdAdAdGdTdTdCdAdCdCdTdGdCmAmCmC) | 0.2 pg/mL | 0.5 pg/mL | 2.1 fold change | 1 fold change | 0.1 pg/mL | 1.4 fold change | 1.4 fold change | 0.2 pg/mL | 0.6 pg/mL | 1.2 fold change | 1 fold change | 0.1 pg/mL | 1.1 fold change | 1.1 fold change | did not activate |  |  | 
